According to PubChem BioAssay AID2060906 (Molecular Pharmacology Branch, DTP, NCI, 2025):

Test system: 485176-168-R4-J1-PDC complex spheroid growth
Assay: Anticancer human tumor 485176-168-R4-J1-PDC patient-derived pancreatic adenocarcinoma cell line growth inhibition [RAS]
Details: for IC50: curve of first compound; for viability, T/C: stronger effect = lower value
From the text: RAS pathway inhibitors in Combinations in Complex Spheroids
A high-throughput screen of multi-cell type tumor spheroids was designed to identify active combinations of RAS pathway inhibitors and targeted small molecules. Complex spheroids include a stromal component modeled by human endothelial cells (HUVEC) and fibroblasts modeled by human mesenchymal stem cells (MSCs). The concentration ranges selected for each drug and investigational agent were based upon clinically achievable concentrations if the clinical Cmax of the agent was known.
Compounds. The drugs and investigational agents: abemaciclib (NSC768073), cobimetinib (NSC768068), divarasib (GDC6063, NSC841802), docetaxel (NSC628503), GDC-1971 (RLY-1971, NSC841576), gemcitabine (NSC613327), inavolisib (NSC800729), ipatasertib (NSC767898), KB-0742 (NSC834161), MRTX-1133 (NSC836407), osimertinib (NSC779217), RMC-4630 (NSC839698), RMC-6236 (NSC851965), RMC-6291 (NSC852671), Ro-3306 (NSC812927), sapanisertib (NSC764658), SN-38 (NSC673596), staurosporine (NSC755774), SY5609 (NSC837396), and tovorafenib (DAY101, NSC766906), were obtained from the National Cancer Institute (NCI) Developmental Therapeutics Program Chemical Repository. The FDA-approved anticancer drug set is available from the NCI Developmental Therapeutics Program. […] The stock solutions were prepared in dimethyl sulfoxide (DMSO, Sigma-Aldrich, St. Louis, MO, cat. D2650) at 800-fold the tested concentration and stored at -70 degrees C prior to their use. All drugs and investigational agents were tested over a range starting from a high concentration at or near the clinical Cmax and decreasing in half-log increments. If the clinical Cmax for an agent had not been determined, the highest concentration tested was 10 microM.
Cell Culture. All cells were maintained in an incubator at 37 degrees C and 5% CO2 with 95% humidity. The PDC lines were cultured according to standard operating procedures established by the NCI PDMR. All PDCs were thawed and cultured in Matrigel-coated flasks prepared with a working solution of 1X Ham's F-12 nutrient mix, without supplementation (Invitrogen, Waltham, MA, cat. 11765054), 100 U/mL penicillin-streptomycin (Invitrogen, cat. 15140122), and 2.5% Matrigel (Corning Inc., Corning, NY, cat. 354248) for the first three passages. The 362531-283-R-J2-PDC and 782815-120-R-J1-PDC lines were cultured in 6C/Colon 1B media, which includes advanced DMEM/F-12 (Thermo Fisher Scientific, cat. 12634028), 10 mM HEPES (Thermo Fisher Scientific, cat. 15630080), 1X GlutaMAX supplement (Thermo Fisher Scientific, cat. 35050061), 0.1 mg/mL primocin (InvivoGen, San Diego, CA, cat. ant-pm-2), 10% defined fetal bovine serum, heat inactivated (HyClone Laboratories Inc., Logan, UT, cat. SH30070.03HI), 50% L-WRN conditioned media (ATCC, cat. CRL-3276), 1.25 mM N-Acetyl-L-cysteine (Sigma-Aldrich, cat. A9165), 10 mM nicotinamide (Sigma-Aldrich, cat. N0636), 1X B-27 supplement (Thermo Fisher Scientific, cat. 17504044), 1X N-2 supplement (Thermo Fisher Scientific, cat. 17502048), 50 ng/mL human EGF (Thermo Fisher Scientific, cat. PHG0311), and 10 microM Y-27632 dihydrochloride (Tocris Bioscience, cat. 1254). The K12877-001-R-J1-PDC line was cultured in 6I media, which includes all 6C/Colon 1B media plus 10 ng/mL human FGF-10 (PeproTech, cat. 100-26), 1 ng/mL human FGF-2 (PeproTech, cat. 100-18B), 1 µM prostaglandin E2 (Tocris Bioscience, cat. 2296), […] hydrocortisone (Sigma-Aldrich, cat. H4001), and […] bovine insulin (Sigma-Aldrich, cat. I6634). The K86415-001-R-J1-PDC line was cultured in 6D media, which includes all 6C/Colon 1B media components minus the L-WRN conditioned media. The 485176-168-R4-J1-PDC was cultured in PANC media, which includes all 6C/Colon 1B media plus 100 ng/mL human FGF-10 (PeproTech, cat. 100-26), 500 nM SB-431542 (Selleckchem, cat. S1067), and 10 nM gastrin (Tocris Bioscience, cat. 3006). […]

[1] = second compound 0.000949 µM, first compound 0.0316 µM
[2] = second compound 0.000949 µM, first compound 0.1 µM
[3] = second compound 0.000949 µM, first compound 0.316 µM
[4] = second compound 0.000949 µM, first compound 1 µM
[5] = second compound 0.003 µM, first compound 0.0316 µM
[6] = second compound 0.003 µM, first compound 0.1 µM
[7] = second compound 0.003 µM, first compound 0.316 µM
[8] = second compound 0.003 µM, first compound 1 µM
[9] = second compound 0.00949 µM, first compound 0.0316 µM
[10] = second compound 0.00949 µM, first compound 0.1 µM
[11] = second compound 0.00949 µM, first compound 0.316 µM
[12] = second compound 0.00949 µM, first compound 1 µM
[13] = second compound 0.03 µM, first compound 0.0316 µM
[14] = second compound 0.03 µM, first compound 0.1 µM
[15] = second compound 0.03 µM, first compound 0.316 µM
[16] = second compound 0.03 µM, first compound 1 µM
[17] = second compound 0.0949 µM, first compound 0.0316 µM
[18] = second compound 0.0949 µM, first compound 0.1 µM
[19] = second compound 0.0949 µM, first compound 0.316 µM
[20] = second compound 0.0949 µM, first compound 1 µM
[21] = second compound 0.3 µM, first compound 0.0316 µM
[22] = second compound 0.3 µM, first compound 0.1 µM
[23] = second compound 0.3 µM, first compound 0.316 µM
[24] = second compound 0.3 µM, first compound 1 µM
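Note: spheroids exposed to compounds for seven days before readout.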
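Throughout, for viability, T/C: luminescence viability expressed relative to DMSO vehicle wells set as 100%.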

CCN1CCN(Cc2ccc(Nc3ncc(F)c(-c4cc(F)c5nc(C)n(C(C)C)c5c4)n3)nc2)CC1 + CCn1c(-c2cccnc2C(C)OC)c2c3cc(ccc31)N1CCOC(CC(NC(=O)C(C(C)C)N(C)C(=O)C3(F)CCN(C(=O)C#CC(C)(C)N(C)C)CC3)C(=O)N3CCCC(N3)C(=O)OCC(C)(C)C2)C1
IC50 (second compound 0.000949 µM): > 1000 nM | IC50 (second compound 0.003 µM): > 1000 nM | IC50 (second compound 0.00949 µM): > 1000 nM | IC50 (second compound 0.03 µM): > 1000 nM | IC50 (second compound 0.0949 µM): > 1000 nM | IC50 (second compound 0.3 µM): > 1000 nM | viability, T/C (second compound 0.000949 µM, first compound 0.00316 µM): 93.4% | viability, T/C (second compound 0.000949 µM, first compound 0.01 µM): 103% | viability, T/C [1]: 100% | viability, T/C [2]: 83.7% | viability, T/C [3]: 96.5% | viability, T/C [4]: 64.5% | viability, T/C (second compound 0.003 µM, first compound 0.00316 µM): 92% | viability, T/C (second compound 0.003 µM, first compound 0.01 µM): 92.4% | viability, T/C [5]: 89.6% | viability, T/C [6]: 99.3% | viability, T/C [7]: 74.2% | viability, T/C [8]: 67.8% | viability, T/C (second compound 0.00949 µM, first compound 0.00316 µM): 101% | viability, T/C (second compound 0.00949 µM, first compound 0.01 µM): 101% | viability, T/C [9]: 94.3% | viability, T/C [10]: 89.1% | viability, T/C [11]: 74.5% | viability, T/C [12]: 75% | viability, T/C (second compound 0.03 µM, first compound 0.00316 µM): 86.2% | viability, T/C (second compound 0.03 µM, first compound 0.01 µM): 91% | viability, T/C [13]: 87.6% | viability, T/C [14]: 72.8% | viability, T/C [15]: 72% | viability, T/C [16]: 67.4% | viability, T/C (second compound 0.0949 µM, first compound 0.00316 µM): 104% | viability, T/C (second compound 0.0949 µM, first compound 0.01 µM): 85.2% | viability, T/C [17]: 84.4% | viability, T/C [18]: 75.9% | viability, T/C [19]: 80% | viability, T/C [20]: 74% | viability, T/C (second compound 0.3 µM, first compound 0.00316 µM): 80.7% | viability, T/C (second compound 0.3 µM, first compound 0.01 µM): 84.4% | viability, T/C [21]: 73.2% | viability, T/C [22]: 75.2% | viability, T/C [23]: 75.9% | viability, T/C [24]: 57.4%

C[C@@H](NC(=O)c1ncnc(N)c1Cl)c1ncc(C(=O)Nc2cc(C(F)(F)F)c(Cl)cn2)s1 + CCn1c(-c2cc(N3CCN(C)CC3)cnc2C(C)OC)c2c3cc(ccc31)-c1csc(n1)CC(NC(=O)C1CC1C)C(=O)N1CCCC(N1)C(=O)OCC(C)(C)C2
IC50 (second compound 0.000949 µM): > 10000 nM | IC50 (second compound 0.003 µM): > 10000 nM | IC50 (second compound 0.00949 µM): > 10000 nM | IC50 (second compound 0.03 µM): > 10000 nM | IC50 (second compound 0.0949 µM): 2380 nM | IC50 (second compound 0.3 µM): 4370 nM | viability, T/C [1]: 102% | viability, T/C [2]: 92.3% | viability, T/C [3]: 83.9% | viability, T/C [4]: 67.5% | viability, T/C (second compound 0.000949 µM, first compound 3.16 µM): 83.7% | viability, T/C (second compound 0.000949 µM, first compound 10 µM): 83.8% | viability, T/C [5]: 86.6% | viability, T/C [6]: 97.8% | viability, T/C [7]: 92.4% | viability, T/C [8]: 84.1% | viability, T/C (second compound 0.003 µM, first compound 3.16 µM): 71.7% | viability, T/C (second compound 0.003 µM, first compound 10 µM): 58.1% | viability, T/C [9]: 92.7% | viability, T/C [10]: 90.9% | viability, T/C [11]: 74% | viability, T/C [12]: 74% | viability, T/C (second compound 0.00949 µM, first compound 3.16 µM): 57.6% | viability, T/C (second compound 0.00949 µM, first compound 10 µM): 56.2% | viability, T/C [13]: 92.1% | viability, T/C [14]: 77.6% | viability, T/C [15]: 89.5% | viability, T/C [16]: 55.8% | viability, T/C (second compound 0.03 µM, first compound 3.16 µM): 56.3% | viability, T/C (second compound 0.03 µM, first compound 10 µM): 43.8% | viability, T/C [17]: 78.2% | viability, T/C [18]: 80.3% | viability, T/C [19]: 59.7% | viability, T/C [20]: 51.4% | viability, T/C (second compound 0.0949 µM, first compound 3.16 µM): 56.1% | viability, T/C (second compound 0.0949 µM, first compound 10 µM): 36.2% | viability, T/C [21]: 85.4% | viability, T/C [22]: 69.6% | viability, T/C [23]: 65.5% | viability, T/C [24]: 58.7% | viability, T/C (second compound 0.3 µM, first compound 3.16 µM): 57% | viability, T/C (second compound 0.3 µM, first compound 10 µM): 42.3%
